Test results reported in PubChem BioAssay (NCI).
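Step 1: Grow cells in 96-well plates. Step 2: Expose to compound for 48 hours at 5 concentrations. Step 3: Interpolate endpoints linearly; if unreached, use highest concentration. The concentration for 50% growth inhibition is given as GI50. TGI is the concentration that stops growth completely.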

Columns and labels:
Assay in all cases: NCI tumour cell line growth inhibition, 48 h
LOX IMVI melanoma = tested on: LOX IMVI melanoma
SK-MEL-2 melanoma = tested on: SK-MEL-2 melanoma
RPMI-8226 leukemia = tested on: RPMI-8226 leukemia
IGROV1 ovarian = tested on: IGROV1 ovarian
SW-620 colon = tested on: SW-620 colon
SK-MEL-5 melanoma = tested on: SK-MEL-5 melanoma
CCRF-CEM leukemia = tested on: CCRF-CEM leukemia
M19-MEL melanoma = tested on: M19-MEL melanoma
MALME-3M melanoma = tested on: MALME-3M melanoma
NCI-H522 lung = tested on: NCI-H522 lung
P388/ADR leukemia = tested on: P388/ADR leukemia
HOP-62 NSCLC = tested on: HOP-62 NSCLC
K-562 leukemia = tested on: K-562 leukemia
U251 CNS = tested on: U251 CNS
CAKI-1 renal = tested on: CAKI-1 renal
NCI-H226 lung = tested on: NCI-H226 lung
KM12 colon = tested on: KM12 colon
KM20L2 colon = tested on: KM20L2 colon
MCF7 breast = tested on: MCF7 breast
EKVX NSCLC = tested on: EKVX NSCLC
HL-60(TB) leukemia = tested on: HL-60(TB) leukemia
RXF 393 renal = tested on: RXF 393 renal
DMS 273 small cell lung = tested on: DMS 273 small cell lung
SK-MEL-28 melanoma = tested on: SK-MEL-28 melanoma
A498 renal = tested on: A498 renal
HCT-15 colon = tested on: HCT-15 colon
HOP-92 NSCLC = tested on: HOP-92 NSCLC
MOLT-4 leukemia = tested on: MOLT-4 leukemia
HCT-116 colon = tested on: HCT-116 colon
SNB-19 CNS = tested on: SNB-19 CNS
HOP-18 NSCLC = tested on: HOP-18 NSCLC
XF 498 CNS = tested on: XF 498 CNS
HCC-2998 colon = tested on: HCC-2998 colon
SK-OV-3 ovarian = tested on: SK-OV-3 ovarian
SNB-75 CNS = tested on: SNB-75 CNS
SN12K1 renal = tested on: SN12K1 renal
UACC-257 melanoma = tested on: UACC-257 melanoma
NCI-H460 lung = tested on: NCI-H460 lung
UO-31 renal = tested on: UO-31 renal
SNB-78 CNS = tested on: SNB-78 CNS
OVCAR-5 ovarian = tested on: OVCAR-5 ovarian
DMS 114 small cell lung = tested on: DMS 114 small cell lung
NCI-H23 lung = tested on: NCI-H23 lung
DLD-1 colon = tested on: DLD-1 colon
SN12C renal = tested on: SN12C renal
OVCAR-8 ovarian = tested on: OVCAR-8 ovarian
SF-539 CNS = tested on: SF-539 CNS
SF-295 CNS = tested on: SF-295 CNS
OVCAR-4 ovarian = tested on: OVCAR-4 ovarian
P388 leukemia = tested on: P388 leukemia
A549 NSCLC = tested on: A549 NSCLC
HT29 colon = tested on: HT29 colon
COLO 205 colon = tested on: COLO 205 colon
UACC-62 melanoma = tested on: UACC-62 melanoma
SF-268 CNS = tested on: SF-268 CNS
NCI/ADR-RES ovarian = tested on: NCI/ADR-RES ovarian
OVCAR-3 ovarian = tested on: OVCAR-3 ovarian
DU-145 prostate = tested on: DU-145 prostate
ACHN renal = tested on: ACHN renal
MDA-N = tested on: MDA-N
M14 melanoma = tested on: M14 melanoma
RXF-631 renal = tested on: RXF-631 renal
MDA-MB-435 = tested on: MDA-MB-435
HS 578T breast = tested on: HS 578T breast
MDA-MB-231 breast = tested on: MDA-MB-231 breast
TK-10 renal = tested on: TK-10 renal
PC-3 prostate = tested on: PC-3 prostate
LXFL 529 NSCLC = tested on: LXFL 529 NSCLC
786-0 renal = tested on: 786-0 renal
T-47D breast = tested on: T-47D breast
BT-549 breast = tested on: BT-549 breast

CC(C)c1oc(=O)cc2c1C(O)C1OC(=O)C3(C)C(O)C4OC4C2(C)C13 (centres undefined)
TGI (LOX IMVI melanoma): 5.77 µM
TGI (SK-MEL-2 melanoma): 7.71 µM
TGI (RPMI-8226 leukemia): 4.1 µM
TGI (IGROV1 ovarian): 20.6 µM
TGI (SW-620 colon): 19 µM
TGI (SK-MEL-5 melanoma): 1.77 µM
TGI (CCRF-CEM leukemia): 3.07 µM
TGI (M19-MEL melanoma): 7.75 µM
TGI (MALME-3M melanoma): 10 µM
TGI (NCI-H522 lung): 5.21 µM
TGI (P388/ADR leukemia): 16.6 µM
TGI (HOP-62 NSCLC): 9.27 µM
TGI (K-562 leukemia): 6.63 µM
TGI (U251 CNS): 25 µM
TGI (CAKI-1 renal): 9.39 µM
TGI (NCI-H226 lung): 19.3 µM
TGI (KM12 colon): 24.9 µM
TGI (KM20L2 colon): 12.8 µM
TGI (MCF7 breast): 5.23 µM
TGI (EKVX NSCLC): 9.84 µM
TGI (HL-60(TB) leukemia): 1.22 µM
TGI (RXF 393 renal): 6.8 µM
TGI (DMS 273 small cell lung): 5.93 µM
TGI (SK-MEL-28 melanoma): 12.7 µM
TGI (A498 renal): 1.41 µM
TGI (HCT-15 colon): 41.6 µM
TGI (HOP-92 NSCLC): 2.38 µM
TGI (MOLT-4 leukemia): 2.13 µM
TGI (HCT-116 colon): 9.99 µM
TGI (SNB-19 CNS): 4.41 µM
TGI (HOP-18 NSCLC): 24.3 µM
TGI (XF 498 CNS): 1.95 µM
TGI (HCC-2998 colon): 7.92 µM
TGI (SK-OV-3 ovarian): 20.3 µM
TGI (SNB-75 CNS): 7.92 µM
TGI (SN12K1 renal): 9.37 µM
TGI (UACC-257 melanoma): 10.8 µM
TGI (NCI-H460 lung): 9.73 µM
TGI (UO-31 renal): 15.5 µM
TGI (SNB-78 CNS): 52 µM
TGI (OVCAR-5 ovarian): 27.2 µM
TGI (DMS 114 small cell lung): 6.31 µM
TGI (NCI-H23 lung): 7.63 µM
TGI (DLD-1 colon): 8.57 µM
TGI (SN12C renal): 7.05 µM
TGI (OVCAR-8 ovarian): 10.6 µM
TGI (SF-539 CNS): 4.19 µM
TGI (SF-295 CNS): 12.8 µM
TGI (OVCAR-4 ovarian): 12.4 µM
TGI (P388 leukemia): 1.23 µM
TGI (A549 NSCLC): 16.5 µM
TGI (HT29 colon): 11.1 µM
TGI (COLO 205 colon): 4.18 µM
TGI (UACC-62 melanoma): 7.44 µM
TGI (SF-268 CNS): 25 µM
TGI (NCI/ADR-RES ovarian): 96.9 µM
TGI (OVCAR-3 ovarian): 6.42 µM

Brc1ccccc2cc(-c3ccccc3)nc1-2
TGI (LOX IMVI melanoma): 21.4 µM
TGI (SK-MEL-2 melanoma): 18.6 µM
TGI (RPMI-8226 leukemia): 29.7 µM
TGI (DU-145 prostate): > 63.3 µM
TGI (IGROV1 ovarian): 26.5 µM
TGI (SW-620 colon): > 36.2 µM
TGI (SK-MEL-5 melanoma): 36.2 µM
TGI (ACHN renal): 20.6 µM
TGI (CCRF-CEM leukemia): > 48.5 µM
TGI (MDA-N): 29.4 µM
TGI (MALME-3M melanoma): 20.4 µM
TGI (NCI-H522 lung): 21.7 µM
TGI (M14 melanoma): 28.3 µM
TGI (HOP-62 NSCLC): 42.9 µM
TGI (K-562 leukemia): > 61.2 µM
TGI (U251 CNS): 37.5 µM
TGI (CAKI-1 renal): 44.7 µM
TGI (NCI-H226 lung): 37.7 µM
TGI (KM12 colon): 32.8 µM
TGI (MCF7 breast): 64.8 µM
TGI (RXF-631 renal): > 53.3 µM
TGI (EKVX NSCLC): 40.4 µM
TGI (HL-60(TB) leukemia): 35.8 µM
TGI (RXF 393 renal): 16.7 µM
TGI (MDA-MB-435): > 61 µM
TGI (DMS 273 small cell lung): 16.4 µM
TGI (SK-MEL-28 melanoma): 29.8 µM
TGI (A498 renal): 42.7 µM
TGI (HCT-15 colon): 17.1 µM
TGI (HOP-92 NSCLC): 19.8 µM
TGI (HS 578T breast): > 100 µM
TGI (MOLT-4 leukemia): > 92.3 µM
TGI (HCT-116 colon): 10.5 µM
TGI (MDA-MB-231 breast): > 42.3 µM
TGI (SNB-19 CNS): 40.7 µM
TGI (HOP-18 NSCLC): 13.9 µM
TGI (XF 498 CNS): 3.44 µM
TGI (HCC-2998 colon): 10.8 µM
TGI (SK-OV-3 ovarian): 37.8 µM
TGI (SNB-75 CNS): 51.5 µM
TGI (UACC-257 melanoma): 32 µM
TGI (NCI-H460 lung): 73.5 µM
TGI (UO-31 renal): 25.5 µM
TGI (SNB-78 CNS): 6.91 µM
TGI (OVCAR-5 ovarian): 35 µM
TGI (DMS 114 small cell lung): 6.12 µM
TGI (NCI-H23 lung): 21.2 µM
TGI (DLD-1 colon): 3.74 µM
TGI (SN12C renal): 19.4 µM
TGI (OVCAR-8 ovarian): > 50.2 µM
TGI (TK-10 renal): 30.8 µM
TGI (PC-3 prostate): > 64.8 µM
TGI (SF-539 CNS): 17.7 µM
TGI (LXFL 529 NSCLC): 3.25 µM
TGI (786-0 renal): 10.8 µM
TGI (SF-295 CNS): 48.9 µM
TGI (OVCAR-4 ovarian): 19.8 µM
GI50 (T-47D breast): 15.7 µM
TGI (T-47D breast): > 100 µM
TGI (A549 NSCLC): 53 µM
TGI (HT29 colon): > 90.3 µM
TGI (BT-549 breast): 56.5 µM
TGI (COLO 205 colon): 15.8 µM
TGI (UACC-62 melanoma): 23.7 µM
TGI (SF-268 CNS): 28.7 µM
TGI (NCI/ADR-RES ovarian): 44.6 µM
TGI (OVCAR-3 ovarian): 12.3 µM
